Measured values published in PubChem BioAssay (NCI).
Values joined by “and” are separate entries in the source; they are usually repeats but may differ in a detail not shown here. Equal values may be shown once.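 Each compound was tested at five concentrations against cells in 96-well plates for 48 hours. GI50 is the concentration that inhibits growth by half. The concentration for full growth arrest is given as TGI.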

Columns and labels:
Assay in all cases: growth of human tumour cells (NCI), 48 h
SF-539 CNS = test system: SF-539 CNS
MDA-MB-231 breast = test system: MDA-MB-231 breast
KM12 colon = test system: KM12 colon
MCF7 breast = test system: MCF7 breast
HCT-116 colon = test system: HCT-116 colon
M14 melanoma = test system: M14 melanoma
SNB-75 CNS = test system: SNB-75 CNS
SNB-19 CNS = test system: SNB-19 CNS
HCC-2998 colon = test system: HCC-2998 colon
SK-MEL-2 melanoma = test system: SK-MEL-2 melanoma

Compound	GI50 (SF-539 CNS)	TGI (SF-539 CNS)	GI50 (MDA-MB-231 breast)	TGI (MDA-MB-231 breast)	GI50 (KM12 colon)	TGI (KM12 colon)	GI50 (MCF7 breast)	TGI (MCF7 breast)	GI50 (HCT-116 colon)	TGI (HCT-116 colon)	GI50 (M14 melanoma)	TGI (M14 melanoma)	GI50 (SNB-75 CNS)	TGI (SNB-75 CNS)	GI50 (SNB-19 CNS)	TGI (SNB-19 CNS)	GI50 (HCC-2998 colon)	TGI (HCC-2998 colon)	GI50 (SK-MEL-2 melanoma)	TGI (SK-MEL-2 melanoma)
O=C1C(=O)c2c(nc3ccc(Br)cn23)-c2ccccc21	0.472 µM	1.01 µM	0.465 µM	2.86 µM	1.55 µM	3.19 µM	0.385 µM	1.08 µM	0.314 µM	1.2 µM	0.489 µM	1.02 µM	0.738 µM	2.37 µM	1.41 µM	2.72 µM	1.93 µM	3.51 µM	0.596 µM	1.99 µM
O=C1Nc2c(C(F)(F)F)cccc2[C@@]1(c1ccc(O)cc1)c1ccc(OC(F)(F)F)cc1	0.0161 µM	0.0446 µM	0.222 µM	18.2 µM	< 0.0143 µM	3.28 µM	< 0.01 µM	0.0269 µM	< 0.0172 µM	–	0.0537 µM	14.1 µM	< 0.01 µM	< 0.0147 µM	0.0285 µM	0.0974 µM	< 0.01 µM	0.0131 µM	0.0194 µM	0.0515 µM
COc1ccc(C(SCC(N)C(=O)O)(c2ccccc2)c2ccccc2)cc1 (stereo unspecified)	0.0721 µM	15.1 µM	0.23 µM	4.72 µM	0.239 µM	21.3 µM	0.0385 µM	> 100 µM	0.043 µM	25.8 µM	0.0309 µM	0.126 µM	0.447 µM	88.1 µM	0.0594 µM	> 100 µM	0.246 µM	12.2 µM	5.03 µM	> 79.5 µM
NC1CCC(Nc2nc(NCc3ccc(-c4cccs4)nc3)c3ncn(C4CCCC4)c3n2)CC1 (stereo unspecified)	0.157 µM	0.395 µM	0.024 µM	1.59 µM	0.0285 µM	0.743 µM	0.0301 µM	1.14 µM	0.0332 µM	1.15 µM	0.0258 µM	0.337 µM	0.016 µM	0.0588 µM	0.0302 µM	3.75 µM	0.0307 µM	0.49 µM	0.0908 µM	0.288 µM
Cc1ccc(-c2cc3c(SCC(=O)Nc4cc(C(F)(F)F)ccc4Cl)nccn3n2)cc1	8.5 µM	> 100 µM	94.5 µM	> 100 µM	> 100 µM	> 100 µM	> 100 µM	> 100 µM	5.01 µM	> 100 µM	> 100 µM	> 100 µM	23.5 µM	> 100 µM	30.9 µM	> 100 µM	> 100 µM	> 100 µM	> 100 µM	> 100 µM
CCN(CC)CCOc1ccccc1/C=C/c1noc2ccccc12	–	31.8 µM	–	25.7 µM	–	31.5 µM	–	27.9 µM	–	19.2 µM	–	15.4 µM	–	22.2 µM	–	26.7 µM	–	18 µM	–	16.7 µM
Clc1cccc(Cl)c1C1CSc2ccccc2N=C1c1ccccc1 (stereo unspecified)	6.08 µM	18.9 µM	2.95 µM	14.1 µM	2.15 µM	4.69 µM	0.595 µM	11.6 µM	1.71 µM	3.32 µM	8.44 µM	23.1 µM	2.53 µM	17.2 µM	11.5 µM	24.6 µM	4.74 µM	15.5 µM	11.2 µM	24.3 µM
O=C1c2ccccc2S(=O)(=O)N1CSC(=S)N1CCCCC1	> 100 µM	> 100 µM	> 100 µM	> 100 µM	> 55.7 µM	> 100 µM	–	> 100 µM	> 100 µM	> 100 µM	> 100 µM	> 100 µM	> 100 µM	> 100 µM	> 100 µM	> 100 µM	> 100 µM	> 100 µM	> 100 µM	> 100 µM
CC1=CC(=C(c2ccc(N)cc2)c2ccc(N)cc2)C=CC1=N	0.632 µM and 2.32 µM	8.36 µM and 9.18 µM and 16.9 µM	2.33 µM and 2.87 µM	–	0.557 µM and 2.72 µM	6.54 µM and 7.11 µM and 10.1 µM	0.803 µM and 2.32 µM	11.4 µM and > 66.8 µM and 21.1 µM	0.457 µM and 2.8 µM	4.15 µM and 25.7 µM and 9.14 µM	0.867 µM and 3.79 µM	5.25 µM and 17.7 µM and 15.3 µM	0.428 µM and 0.455 µM and 2.31 µM	–	0.494 µM	14.4 µM and 20.1 µM and 28.1 µM	–	2.21 µM and 16 µM and 18.9 µM	2.32 µM and 2.71 µM	7.73 µM and 12.2 µM and 5.84 µM
COC(=O)C(=O)C(C(=O)C(=O)Nc1nc2ccc(C)cc2s1)c1nc2ccc([N+](=O)[O-])cc2[nH]c1=O (stereo unspecified)	–	> 100 µM	–	> 100 µM	–	> 100 µM	–	> 100 µM	–	> 100 µM	–	> 100 µM	–	> 100 µM	–	> 100 µM	–	> 100 µM	–	> 100 µM
CCCCCCCCN(CCCCCCCC)CCCCCCNc1cc(OC)cc2cccnc12	3.18 µM	11.5 µM	4.75 µM	15.9 µM	6.81 µM	20 µM	3.33 µM	12.4 µM	2.37 µM	6.49 µM	3.33 µM	12.4 µM	15.3 µM	29 µM	10.5 µM	24.2 µM	13.1 µM	26.2 µM	5.8 µM	19.1 µM
Cc1cc(O)ccc1C1=NN(c2ccc(S(C)(=O)=O)cc2)C(=O)CC1	13.2 µM	> 100 µM	17.1 µM	> 100 µM	4.22 µM	> 100 µM	20.7 µM	> 100 µM	3.78 µM	> 100 µM	3.85 µM	> 100 µM	5.53 µM	75.2 µM	50.4 µM	> 100 µM	46.7 µM	> 100 µM	3.48 µM	32.8 µM
O=C(c1ccccc1)c1ccc(Oc2ccc([N+](=O)[O-])cc2[N+](=O)[O-])cc1	2.7 µM	7.32 µM	6.74 µM	49.9 µM	2.72 µM	7.34 µM	3.71 µM	19.7 µM	3.29 µM	26.2 µM	3.09 µM	31.6 µM	5.62 µM	26.7 µM	7.74 µM	34.2 µM	11.4 µM	25.3 µM	4.57 µM	22.6 µM
NC(=O)c1ccc(NN=O)nc1	–	> 100 µM	–	> 100 µM	–	> 100 µM	–	> 100 µM	–	> 100 µM	–	> 100 µM	–	> 100 µM	–	> 100 µM	–	> 100 µM	> 100 µM	> 100 µM
